Results on 67 compounds are retold here after ChEMBL document CHEMBL2448809, “UCSF DeRisi Lab MMV Box Apicoplast Screening”.

Each structure is given as a SMILES string.

This assay concerns Plasmodium falciparum. Put plainly: MMV: Compounds (1uM) were screened in a 72hr growth assay monitored by flow cytometry both in the presence and absence of supplemental isopentenyl pyrophosphate (IPP) 200uM. Compounds which fail to show anti-malarial activity when chemically rescued by IPP are therefore specific to the apicoplast. The values are expressed as the ratio of the corresponding activity with and without IPP, respectively. It is filed as functional, W2.
Consider `CN1CCN(c2ccc(Nc3c4ccccc4nc4ccccc34)cc2)CC1`, for which the Ratio came out at 0.8. Take `CN(C)CCCNc1c2ccccc2nc2ccccc12`: the Ratio is on record as 0.7564.

In the case of `COc1ccc(-c2c(C)nn3c(N)c(C#N)cnc23)cc1OC`, the Ratio was 0.831.

Take `CSC1=NC(=Nc2c(C)cccc2C)C2(CCC(C(C)(C)C)CC2)N1c1ccc(Cl)cc1` (configuration not stated): the Ratio is given as 0.8243. Under `Cc1cc(C)cc(Nc2cc(C)nc3nc(C(F)(F)F)nn23)c1` stands 0.8519; under `O=C(NCC(c1ccsc1)N1CCCCCC1)c1ccc(C(F)(F)F)cc1` (configuration not stated), 0.9077. For `COc1ccc(-c2cc3c(SCC(=O)Nc4cc(C(F)(F)F)ccc4Cl)nccn3n2)cc1`, the Ratio amounted to 0.9714. The value for `Cc1ccc(-c2cc3c(SCC(=O)Nc4cc(C(F)(F)F)ccc4Cl)nccn3n2)cc1` was 0.9375; that for `CCN(CC)CCNc1ncnc2c1[nH]c1ccc(Cl)cc12` was 0.6923. The value for `CCOC(=O)c1cnc2ccc(CC)cc2c1O` was 1; that for `CCN(CC)CCNc1ccnc2cc(Cl)ccc12` was 0.8734; that for `CCCCCC(=O)N1c2ccccc2N=C2CC(c3ccc(OC)c(OC)c3)CC(O)=C2C1c1ccc(C(F)(F)F)cc1` (configuration not stated) was 0.7792. Under `Cc1cc(Nc2ccc3ccccc3c2)n2ncnc2n1` stands 0.8919; under `Cc1cc(NCCN2CCCCC2)c2ccc3ccccc3c2n1`, 0.8873.

Take `COc1ccc(-n2ccnc2SCC(=O)Nc2cc(C)ccc2C)c(OC)c1`: the Ratio amounted to 0.75. Regarding `CCN1CCN(Cc2ccc(NC(=O)c3cc4ccc5cccnc5c4[nH]3)cc2)CC1`, the Ratio turned out to be 1.563. Consider `COc1ccc(-c2nc(NC(=O)CS(=O)(=O)c3ccc(F)cc3)sc2C)cc1`, for which the Ratio came to 0.8289.

For `O=C(O)C1Cc2c([nH]c3ccccc23)C(c2ccc(Cl)cc2Cl)N1` (configuration not stated), the Ratio is reported as 6.316. The value for `Cc1ccc(N2C(=O)C3C(C2=O)C2(c4ccccc4)C(=O)C3(c3ccccc3)C(c3ccccc3)=C2c2ccccc2)cc1` (configuration not stated) was 1.121. Under `CCc1c(C)c(=N)c2ccccc2n1C.I` stands 1.064; under `COc1cccc(NC(=O)[C@H](C(C)C)n2c(=O)[nH]c3ccccc3c2=O)c1`, 0.7619; under `CCOC(=O)c1cn(CC)c2cc(N(C)CCc3ccc(OC)c(OC)c3)c(F)cc2c1=O`, 0.75.

`CCC(c1ccccc1)c1nn2c(-c3cccs3)nnc2s1` (configuration not stated): the Ratio was 0.775. The value for `CC(C)(C)c1ccc(O)c(CNC2CCCCC2)c1` was 0.8356; that for `O=[N+]([O-])c1ccc(C=NNc2nc3ccccc3[nH]2)cc1` was 1.132; that for `CCOc1cc2c(cc1OCC)C(c1cc(OC)c(O)cc1Cl)NCC2` (configuration not stated) was 0.9254. The value for `CC1CN(C(=O)c2sc3ccccc3c2Cl)CC(C)O1` (configuration not stated) was 0.8415; that for `CN(C)c1ccc(C=Cc2nc(=O)c3ccccc3o2)cc1` was 0.8302. For `COc1ccc(C2=C(c3ccc(OC)cc3)C3(c4ccccc4)C(=O)C2(c2ccccc2)C2C(=O)N(c4ccc(C)cc4)C(=O)C23)cc1` (configuration not stated), the Ratio was found to be 1.0625.

Turning to `CCOC(=O)c1c(NC(=O)c2ccccc2)sc2c(O)c(CN(CC)CC)ccc12`, the Ratio came out at 0.8592.

With `CCOC(=O)C1=C(c2ccccc2)N=c2sc(=Cc3cc(C)n(-c4ccc(F)cc4)c3C)c(=O)n2C1c1cccc(OC)c1OC` (configuration not stated), the Ratio is given as 0.7267. Under `CCC1(C)CC(CCNCc2ccccc2O)(c2ccc(C)cc2)CCO1` (configuration not stated) stands 0.8378; under `OC(CNC1CCCCC1)Cn1c2ccccc2c2ccccc21` (configuration not stated), 1.115; under `Cc1cc(Nc2ccc(C)c(Cl)c2)n2nc(C(F)(F)F)nc2n1`, 0.6628. With `COc1cccc(C=Cc2nc(=O)c3ccccc3o2)c1OC`, the Ratio is recorded as 0.4632.

Turning to `CCCN(CCC)CC(O)COc1ccccc1C(=O)Nc1ccccc1` (configuration not stated), the Ratio was 0.8553.

As to `Fc1ccc2[nH]c3c(NCCCN4CCOCC4)ncnc3c2c1`, the Ratio came out at 0.8594.

Take `COc1ccc(C=C2SC(=N)N(c3ccccc3OC)C2=O)cc1`: the Ratio was determined as 0.8861.

As to `COc1ccc(NC(=O)C2c3ccccc3C(=O)N(CC(C)C)C2c2cccs2)cc1Cl` (configuration not stated), the Ratio is recorded as 0.9242.

On to `CCOC(=O)c1c(C)n(-c2ccc(Cl)cc2)c2ccc(OC(=O)C=Cc3ccccc3)cc12`, for which the Ratio worked out at 1.121. For `C=CC12CCN(CC1)C(C(O)c1ccnc3ccc(OC)cc13)C2.Cl` (configuration not stated), the Ratio is on record as 0.6933. Under `Cc1ccc(-c2cc3nc4c(c(O)n3n2)CCCC4)cc1` stands 0.9459. As for `Cc1cccc(Nc2nc(N)c3ccccc3n2)c1.Cl`, the Ratio is 0.9275. The value for `CCn1c(CN2CCN(Cc3ccccc3)CC2)nc2cc(NC(=O)c3cccs3)ccc21` was 0.8481. Under `COc1ccccc1CNC(=O)CCn1c(=O)[nH]c2ccccc2c1=O` stands 1.153; under `Cc1cc(C)c2c(c1)OCN(Cc1ccccc1Cl)C2`, 0.8871. Consider `COc1cc(OC)c(N(C)C(=O)c2cc3c(s2)-c2ccccc2S(=O)(=O)C3)cc1Cl`, for which the Ratio turned out to be 1. Under `COc1ccccc1NC1=C(N2CCCCC2)C(=O)c2ccccc2C1=O` stands 0.9344. The value for `CCCc1cc(O)c2c3c(c(=O)oc2c1)CN(C)CC3` was 0.8028; that for `Cc1cc(NC(=O)C2c3ccccc3C(=O)N(CC(C)C)C2c2cccs2)no1` (configuration not stated) was 0.791. Under `Cl.Oc1ccccc1CNCC12CC3CC(CC(C3)C1)C2` stands 0.8. Take `CNCCCNc1ccnc2cc(Cl)ccc12`: the Ratio is 0.8333. The value for `COc1ccccc1CNC(=O)CCn1c(=O)[nH]c2ccsc2c1=O` was 1.123.

`COc1ccc(Br)cc1C1Nc2ccc3ccccc3c2C2=C1C(=O)CC(c1ccccc1)C2` (configuration not stated): the Ratio is reported as 0.8077. Under `Cc1cc(C=C2SC(=Nc3ccccc3)N(C3CCCC3)C2=O)c(C)n1-c1ccc(Cl)cc1` stands 1.038; under `CC1CCN(Cc2ccc(NC(=O)c3cc4ccc5cccnc5c4[nH]3)cc2)CC1`, 1; under `CCc1ccc(Nc2cc(C)c3ccc(O)cc3n2)cc1.Cl`, 0.7867.

As to `COc1ccc2c(=O)cc(C(Cl)(Cl)Cl)oc2c1`, the Ratio was determined as 0.7571. Under `CSc1ccccc1C(=O)Nc1nc(-c2ccccn2)cs1` stands 0.8125; under `COc1ccc(-c2nc3cc(Cc4ccc5[nH]c(-c6ccc(OC)cc6)nc5c4)ccc3[nH]2)cc1`, 1.389; under `Cc1cc(Nc2ccc(Cl)cc2)n2nc(C(F)(F)F)nc2n1`, 0.9718.

For the compound `COc1ccc(C(C)=O)cc1N1C(=O)C2C(C1=O)C1(c3ccccc3)C(=O)C2(c2ccccc2)C(c2ccc(C)cc2)=C1c1ccc(C)cc1` (configuration not stated), the Ratio was 0.8421. As to `CCCCCCOC(=O)C1=C(C)NC(=O)NC1c1ccccc1F` (configuration not stated), the Ratio is 0.6566. Under `Cc1ccc(N2C3c4ccccc4N(S(=O)(=O)c4ccc(C)cc4)C2c2ccccc2N3S(=O)(=O)c2ccc(C)cc2)cc1` stands 0.3473.

Consider `CCCc1c(CC)c(=N)c2ccccc2n1C`, for which the Ratio worked out at 1.043.

For the compound `CCOC(=O)c1cnc2c(C)cc(C)cc2c1Nc1ccc(OC)c(OC)c1`, the Ratio is 1.122. Consider `c1ccc(Cn2c(N=Nc3c(Nc4ccccc4)ccc4ccccc34)nc3ccccc32)cc1`, for which the Ratio came to 0.863.
